{"source": "patent US20240009172A1", "about": "“COMPOSTIONS AND METHODS FOR TREATING PROSTATE CANCER” (The Regents of the University of Michigan, priority 2022, published 2024)", "key": {"[1]": {"tested_on": "metastatic, castration-resistant prostate cancer", "experiment": "Enzalutamide treatment of WCDT patients with matched biopsies: PSA response and time on treatment", "type": "in vivo, human", "parameters": "PSA Change at 12 weeks: unit not given here", "experimental": "(§1) Methods for tissue collection have been described previously 48.\nBy examining the Stand Up to Cancer Foundation/Prostate Cancer Foundation West Coast Dream Team (WCDT) prospective cohort, 21 patients with CRPC who underwent a metastatic tumor biopsy prior to enza and a repeat biopsy at the time of progression and whose tumor cells underwent RNA-sequencing after laser capture microdissection were identified. All progression biopsies were performed prior to discontinuing enza, enabling one to identify resistance mechanisms induced by continued enza treatment.\nBone was the most common site for both pre-treatment and progression biopsies. Eighteen of 21 patients had the same tissue type biopsied at progression. In eight patients, the exact same lesion was biopsied at baseline and progression (FIG. 1B, Table 3). The median time on enza treatment was 226 days."}, "[2]": {"tested_on": "CRPC tumor biopsy transcriptome", "experiment": "RNA-sequencing differential gene expression (DESeq2), progression versus baseline in converters", "parameters": "species or system human", "conditions": "progression vs baseline samples from the three converters", "experimental": "as §1\nCore biopsy samples were flash frozen in Optical Cutting Temperature (OCT) for gene expression analysis. Laser capture microdissection was performed on frozen sections to enrich for tumor content 49. Total RNA was isolated (Stratagene Absolutely RNA Nano Prep) (RIN>8) and amplified using NuGEN Ovation RNA seq System V2. Libraries were generated using NuGEN Ovation Ultralow System V2 for Illumina sequencing. RNA seq was performed on the Illumina NextSeq 500, PE75 with at least 100M read pairs. The raw fastq files were first quality checked using FastQC (version 0.11.8) software (http://www.bioinformatics.bbsrc.ac.uk/projects/fastqc/). Fastq files were aligned to hg38 human reference genome and per-gene counts and transcripts per million (TPM) quantified by RSEM 50 (version 1.3.1) based on the gene annotation gencode.v28.annotation.gtf.\nDifferential expression gene, pathway, and master regulator analysis Differential gene expression analysis was performed using DESeq2 (version 1.22.2). Gene expression differences were considered significant if passing the following criteria: adjusted P-value <0.05, absolute fold change >1.5. For the converter vs non-converter baseline sample comparison, we used the adjusted P-value <0.1. […]"}, "[3]": {"tested_on": "CRPC tumors", "experiment": "Aggarwal cluster designation and Labrecque classification of progression tumors (lineage plasticity)", "parameters": "species or system human", "conditions": "3/21 progression tumors (Aggarwal cluster 2, DNPC by Labrecque)", "experimental": "The unsupervised analysis from Aggarwal, et al. 25 identified five clusters using 119 samples. That study identified 528 genes that were the most differentially expressed between the clusters. Using that gene list, cluster assignments for new samples included in this matched biopsy cohort were determined without replicating the unsupervised analysis. First, the sample batch effect between the samples from the previous study and those from the current study was addressed with exponential normalization on the expression data of all samples—old and new. Exponential normalization is a per-sample operation that fits the expression of all genes to a unit exponential distribution. […]\nTo determine the Labrecque classification, a 26 gene signature used previously to define five phenotypic categories of CRPC 24 was applied: AR-high prostate cancer (ARPC), amphicrine prostate cancer, AR-low prostate cancer (ARLPC), double-negative prostate cancer (DNPC), and neuroendocrine prostate cancer (NEPC) 24. […] Samples were assigned to the phenotype groups by clustering using Euclidean distance calculated by the dist function and visualization using classical multidimensional scaling (MDS) calculated with the cmdscale function in R using the log2(TPM+1) transformed expression profiles of the remaining 25 genes."}}, "data": [{"smiles": "CNC(=O)c1ccc(N2C(=S)N(c3ccc(C#N)c(C(F)(F)F)c3)C(=O)C2(C)C)cc1F", "note": "[enzalutamide]", "values": [{"measurement": "median time on enza treatment", "setting": "[1]; 21 patients", "value": 226, "unit": "days"}, {"measurement": "Median time on enzalutamide, days (SD)", "setting": "[1]; Table 2, n = 21 patients", "value": 261, "unit": "days"}, {"measurement": "50% PSA response to enzalutamide", "setting": "[1]; number of patients, n = 21", "value": 7}, {"measurement": "PSA Change at 12 weeks", "setting": "[1]; patient DTB_024", "value": 75.05}, {"measurement": "PSA Change at 12 weeks", "setting": "[1]; patient DTB_060", "value": "−20.41"}, {"measurement": "PSA Change at 12 weeks", "setting": "[1]; patient DTB_063", "value": "−74.64"}, {"measurement": "PSA Change at 12 weeks", "setting": "[1]; patient DTB_073", "value": 156.81}, {"measurement": "PSA Change at 12 weeks", "setting": "[1]; patient DTB_080", "value": "−28.48"}, {"measurement": "PSA Change at 12 weeks", "setting": "[1]; patient DTB_089", "value": 181.18}, {"measurement": "PSA Change at 12 weeks", "setting": "[1]; patient DTB_098", "value": "−83.74"}, {"measurement": "PSA Change at 12 weeks", "setting": "[1]; patient DTB_102", "value": "−93.02"}, {"measurement": "PSA Change at 12 weeks", "setting": "[1]; patient DTB_111", "value": 113.99}, {"measurement": "PSA Change at 12 weeks", "setting": "[1]; patient DTB_127", "value": 169.29}, {"measurement": "PSA Change at 12 weeks", "setting": "[1]; patient DTB_135", "value": 164.26}, {"measurement": "PSA Change at 12 weeks", "setting": "[1]; patient DTB_137", "value": "−10.85"}, {"measurement": "PSA Change at 12 weeks", "setting": "[1]; patient DTB_141", "value": "−81.04"}, {"measurement": "PSA Change at 12 weeks", "setting": "[1]; patient DTB_149", "value": "−80.29"}, {"measurement": "PSA Change at 12 weeks", "setting": "[1]; patient DTB_167", "value": "−88.38"}, {"measurement": "PSA Change at 12 weeks", "setting": "[1]; patient DTB_176", "value": "−64.76"}, {"measurement": "PSA Change at 12 weeks", "setting": "[1]; patient DTB_194", "value": 100.36}, {"measurement": "PSA Change at 12 weeks", "setting": "[1]; patient DTB_210", "value": "−83.36"}, {"measurement": "PSA Change at 12 weeks", "setting": "[1]; patient DTB_232", "value": "−0.55"}, {"measurement": "PSA Change at 12 weeks", "setting": "[1]; patient DTB_265", "value": 5.84}, {"measurement": "expression of AR, AR target genes (KLK2, KLK3, TMPRSS2) and HOXB13", "setting": "[2]", "value": "markedly decreased expression"}, {"measurement": "enza-induced lineage plasticity and conversion to an AR-independent program, frequency of tumors", "setting": "[3]", "value": 14, "unit": "%"}]}]}
